US10092568B2, “CBP/Catenin antagonists for enhancing asymmetric division of somatic stem cells” (University of Southern California, priority 2010, dated 2018)

Assays:
[1] = test system: Wnt/catenin transcription (TOPFLASH) in SW480 colon carcinoma cells; assay: TOPFLASH TCF/catenin luciferase reporter in SW480 colon carcinoma cells; format: cell-based; details: Homo sapiens
Description: ICG-001. Applicant's pharmacologic tools were identified using cell-based forward chemical genomic screens of small molecule secondary structure template chemical libraries (22).

mice = assay: Topical treatment of mothers throughout pregnancy, offspring development; format: in vivo, mouse; details: mothers treated topically, 0.5M, conception to birth
Description: Acute Promyelocytic Leukemia (APL) is unique among myeloid leukemias due to its sensitivity to all-trans retinoic acid (ATRA), a derivative of vitamin A. Treatment with ATRA dissociates the NCOR-HDACL complex from RAR and allows DNA transcription and differentiation of the immature leukemic promyelocytes into mature granulocytes by targeting the oncogenic transcription factor and its aberrant action. […] A large number of scientific studies have also investigated a possible role for vitamin D in cancer prevention, including colon, prostate, breast, pancreatic and skin cancer. […] However, there are also reports of synergistic effects on the activation of gene expression by ATRA and Wnt for example (47). […] This is the same region of these coactivator proteins (i.e., CBP and p300) that partners with catenin (both beta and gamma) and the CBP/catenin antagonists (e.g., ICG-001) also bind to this region. These nuclear receptor ligands have many of the same differentiating effects on stem cell populations that applicant has observed with specific CBP/catenin antagonists. Although, both Vitamin A and D are required during development and have many beneficial health effects in adulthood, both are teratogenic at high levels. […]

SW620 xenograft = assay: Nude mouse SW620 xenograft model of colon cancer; format: in vivo
Description: Cancer. The importance of Wnt signaling in colorectal cancer is undisputed. Applicant's investigation on the therapeutic utility of ICG-001 therefore quite naturally began with colon cancer.

[2] = test system: mitotic cells in the ventricular zone (VZ); assay: Par3 localization assay of symmetric versus asymmetric divisions in the ventricular zone of embryonic brain; format: in vivo, mouse
Description: Taking advantage of the ready uptake and penetration through the placental barrier of applicant's small molecule Wnt modulators, applicant designed a series of experiments to investigate symmetric versus asymmetric divisions in the ventricular zone (VZ) of the brain during mouse embryonic development. Timed pregnant mice were topically treated for various time periods (1-3 days) with DMSO (vehicle control), the CBP/catenin antagonist ICG-001 or the p300/catenin antagonist IQ-1. Using a previously described protocol (56), the localization of […] (Par3) and DNA was examined in mitotic cells in the VZ. Par3 distributes symmetrically in cells that divide symmetrically and asymmetrically in cells that divide asymmetrically, whereas the DNA distributes symmetrically between the 2 cells. Using fluorescence microscopy, the percentage of mitotic cells dividing symmetrically or asymmetrically could be quantified. […] Antagonizing the CBP/catenin interaction with ICG-001 had no apparent effect yielding similarly, approximately 21% asymmetric divisions. […] Importantly, this decrease in asymmetric divisions upon treatment with IQ-1 could be rescued back essentially to control levels (i.e. ˜21%) by treatment with a 2-fold excess of ICG-001. Even further divergence in symmetric versus asymmetric divisions could be seen upon prolonged treatments. For example, treatment with IQ-1 (i.e., antagonizing p300/catenin interaction leading to increased usage of CBP) for 3 days (E13.5-16.5) decreased asymmetric divisions compared to control from 31% to 7%. […] This reporter mouse expresses EGFP, driven by the Tis21 promoter, in cells that have undergone neurogenic differentiative divisions.
For example, Bultje et al. (Bultje R Neuron 63, 189-202, 2009) describe an assay to measure asymmetric distributions in the ventricular zone (vz) to evaluate asymmetric divisions during neurogenesis. Essentially this involves treating the animal (either adult or in utero) for a set period of time with compounds (either p.o., s.c., i.v. or topically) with compounds and then sacrificing the animal and examining the Par3 distribution (e.g., via immunohistochemistry) in mitotic cells vs. DNA distribution (e.g., using DAPI staining) Par3 distributes equally among the two daughter cells during symmetric division and unequally (essentially all in one daughter cell) during asymmetric differentiation.

[3] = test system: human skin (surgical waste); assay: Ex vivo human skin assay, qRT-PCR; format: cell-based; details: 24 hrs; 5 uM ICG-001, 5 uM methylated ICG-001, 1 ug/ml RA
Protocol: Methods. Ex Vivo human skin assay culture conditions were based upon a paper by Varani J et al Experimental and Molecular Pathology, 2004.
Briefly, human skin (surgical waste from plastic surgery procedures) was obtained and the subcutaneous layer of fat was trimmed manually with a scalpel. The skin was then cut into small fragments about 2 mm square and placed in 6 well plates. 1 ml of keratinocyte culture medium (Gibco 10724-011) with 1% P/S (penstrep antibiotic) was added to each well. The epidermis, bathed in media was placed facing up. On the next day (overnight culture in the media above), the skin fragments were transferred to fresh wells that contained either 5 uM ICG-001, 5-uM methylated ICG-001 or 1 ug/ml of retinoic acid (RA). After 24 hrs, skin samples in culture were removed for RNA isolation and qRT-PCR analysis of genes of interest (e.g., elastin (a gene involved in skin appearance and pliability (e.g., wrinkling)) and aquaporin 1, which is involved with hydration.

IC50 [1]: 30 µM
fertility of offspring (mice): could breed a second generation
weight and size of offspring at 6 weeks of age (mice): normal weight and size
SMILES: O=C1[C@H](Cc2ccc(O)cc2)N2C(=O)CCN(C(=O)NCc3ccccc3)[C@H]2CN1Cc1cccc2ccccc12 [ICG-001]
tumor growth (SW620 xenograft): reducing tumor growth
asymmetric divisions in the VZ after IQ-1, rescued ([2]; IQ-1 plus 2-fold excess of ICG-001): approximately 21%
defect in asymmetric divisions caused by IQ-1 ([2]; excess ICG-001): corrects the defect
number of asymmetric divisions compared to vehicle control ([2]; topical or oral administration to pregnant mice): does not affect
asymmetric divisions in the VZ ([2]; topical, 1 day, E13.5 to 14.5, DMSO approximately 21%): approximately 21%
expression of aquaporin 1 [3]: increase
expression of elastin [3]: increase
